Results from patent publication US8895585B2, “Nicotinamide derivative or salt thereof” (FUJIFILM Corporation, priority 2010, dated 2014).

Legend:
female Lewis rats = experiment: Rat type-II-collagen-induced arthritis; type: in vivo; settings: oral administration at 10 mg/kg/day, once daily Day 7 to Day 20, hindlimb volume by plethysmometer, read-out: inhibition of hindlimb swelling compared with the control group
Description: The compounds were tested to examine effects upon rat type II collagen arthritis. To 3 mg/mL bovine type II collagen solution (Collagen Gijutsu Kenshu-Kai) dissolved in 0.05 mol/L acetic acid, an equal amount of Freund's incomplete adjuvant (Wako Pure Chemical Industries, Ltd.) was added to prepare an emulsion. A portion of the emulsion (0.5 ml) was intradermally injected into the tail bases of 7- or 8-week-old female Lewis rats (Charles River Laboratories Japan, Inc.) (Day 0). Each rat was subjected to the same treatment on Day 7 after the initial inoculation so as to induce arthritis. Each test compound was orally administered from Day 7 to Day 20 once daily. At a given time during the period from Day 7 to Day 21, the rat hindlimb volume was determined using a plethysmometer (UGO BASILE), and the result was designated as an arthritis index. The following compound group inhibited hindlimb swelling by 85% or greater compared with the control group in the case of oral administration at 10 mg/kg/day: the compounds of Example 4-17, Example 6-49, Example 6-117, Example 6-157, Example 6-249, Example 6-322, Example 6-375, and Example 6-395.

male DBA/1J mice = experiment: Mouse type-II collagen-induced arthritis (prophylactic and therapeutic administration test); type: in vivo; settings: for advancement of arthritis after the onset (arthritis score): prophylactic administration test, once daily Day 21 to Day 34, 1 to 30 mg/kg/day
Description: The compounds synthesized in Example 8-1, Example 4-17, and Example 6-49 were tested to examine effects upon mouse type II collagen arthritis. To 2 mg/mL bovine type II collagen solution (Koken Co., Ltd.) dissolved in 0.1 mol/L acetic acid, an equal amount of Freund's complete adjuvant (Wako Pure Chemical Industries, Ltd.) was added to prepare an emulsion. A portion of the emulsion was intradermally injected into the tail bases of 7- or 8-week-old male DBA/1J mice (Charles River Laboratories Japan, Inc.) at a dose of 0.2 mL per mouse (antigen amount: 0.2 mg/mouse) on Day 0 and Day 21 twice, so as to induce arthritis. Each compound was administered once daily from Day 21 to Day 34 in the prophylactic administration test (1 to 30 mg/kg/day), and administered once daily from Day 27 to Day 35 in the therapeutic administration test (25 mg/kg/day). Arthritis scores for four limbs for each mouse were determined starting from Day 21. Specifically, the total score of four limbs of a mouse was designated as the individual arthritis score (12 points at a maximum per mouse) based on the following: score 0: no change; score 1: swelling of 1 or 2 digit joints or mild swelling of the carpal region/the ankle region alone; score 2: swelling of joints of at least 3 digits or obvious swelling of the carpal region/the ankle region; and score 3: obvious swelling over forelimbs or hindlimbs.

[1] = tested on: 170 types of kinases excluding Syk; experiment: Kinase selectivity, Profiler Pro kits (Caliper); type: biochemical; settings: test compound 100 nM
Description: The concentrations of test compounds were adjusted to 100 nM. The test compounds were examined using Profiler Pro kits (Caliper) in terms of activity against each of 170 types of kinases excluding Syk. […] A compound (Example 6-157) having a kinase inhibitory rate of 75% or more with respect to 12 types of kinases was also obtained. Further, an inhibitor (Example 6-373) having a kinase inhibitory rate of 75% or more with respect to 24 types of kinases was obtained.

[2] = target: T1, glutathione S-transferase (GST)-fused full-length human Syk protein (Homo sapiens, UniProt P43405); experiment: Syk enzyme assay; type: biochemical; settings: Syk enzyme assay, Test Example 1; read-out: IC50 of Syk-inhibitory activity
T1 construct: (GST)-fused full-length human Syk protein; GST (glutathione S-transferase); purchased Carna Biosciences
In short: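 Baculovirus-expressed enzyme (1.2 ng) was preincubated with compound in HEPES pH 7.0/MgCl2/DTT buffer, 2 min shaking then 13 min at room temperature. Biotin-EDPDYEWPSA-NH2 (0.4 μM final) and ATP (27 μM final) were added for 40 min at room temperature. EDTA stop, streptavidin-XL/PT66-K TR-FRET at 615/665 nm gave IC50.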

THP-1 cells [3] = experiment: TNFα generation assay; type: cell-based, human; settings: Table 22, read-out: IC50 in TNFα generation assay
In short: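 Secreted TNFα in supernatant quantified by ELISA or AlphaLISA after 7 h culture on human IgG-coated wells (10 μg/ml coating). Cells were IFN-γ-differentiated THP-1 (10 ng/ml, 2 days), exposed to compound for 30 min at room temperature before plating.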

THP-1 cells [4] = experiment: Antibody-dependent phagocytosis assay; type: cell-based; settings: Homo sapiens; THP-1 cells induced to differentiate with IFNγ; opsonized Escherichia coli; Table 23; read-out: IC50 upon phagocytosis inhibition
Description: THP-1 cells (2×10^5 cells/ml) which are human monocyte-like cell line were cultured in the presence of 10 ng/ml IFNγ for 2 days, so that the cells were induced to differentiate into macrophage-like cells. THP-1 cells that had been induced to differentiate were collected. The cells (5×10^4 cells/well) were reacted with test compounds having given concentrations at room temperature for 30 minutes. Thereafter, Escherichia coli (Life Technologies) labeled with a pH-sensitive dye (pHrodo) was subjected to opsonization using an anti-Escherichia coli antibody (Molecular Probes). Then, the resultant was added to THP-1 cells mixed with test compounds that had been induced to differentiate, followed by incubation at 37° C. for 3 hours. At the time of addition of opsonized Escherichia coli, cell-permeable fluorescent dye (Calcein AM) were simultaneously added thereto, and phagocytosis of opsonized Escherichia coli in viable cells was quantitatively determined using an IN Cell Analyzer.
In addition, the following are used in Table 23 to denote standards for evaluating IC50 upon phagocytosis inhibition. • A: Up to 1 μM • B: 1 to 3 μM • C: 3 to 6 μM

[5] = Homo sapiens, THP-1, THP-1 cells

Row | SMILES | inhibition in vivo at 10 mg/kg/day (female Lewis rats) [%] | IC50 [2] [nM] | IC50 (THP-1 cells [3]; [5]) [nM] | IC50 (THP-1 cells [4]) [nM] | also measured
1 | CCC[C@@H](Nc1nc(Nc2ccnc(OC)c2)c(C(N)=O)cc1F)[C@H](C)N [Example 6-249, 6-(((2S,3R)-2-aminohexane-3-yl)amino)-5-fluoro-2-((2-methoxypyridin-4-yl)amino)nicotinamide] | ≥ 85 |  |  |  | 
2 | Cc1ncc(Nc2nc(N[C@@H]3CCCC[C@@H]3N)c(F)cc2C(N)=O)cc1-n1nccn1 [Example 6-375, 6-(((1R,2S)-2-aminocyclohexyl)amino)-5-fluoro-2-((6-methyl-5-(2H-1,2,3-triazol-2-yl)pyridin-3-yl)amino)nicotinamide] | ≥ 85 |  |  |  | 
3 | CCn1ncc2cc(Nc3nc(N[C@@H](CN)CC(C)C)c(F)cc3C(N)=O)ccc21 [Example 6-322, (R)-6-((1-amino-4-methylpentan-2-yl)amino)-2-((1-ethyl-1H-indazol-5-yl)amino)-5-fluoronicotinamide] | ≥ 85 |  |  |  | 
4 | CC(C)C[C@H](CN)Nc1nc(Nc2ccc3ncccc3c2)c(C(N)=O)cc1F [Example 6-117, (R)-6-((1-amino-4-methylpentan-2-yl)amino)-5-fluoro-2-((quinolin-6-yl)amino)nicotinamide] | ≥ 85 |  |  |  | 
5 | Cc1cncc(Nc2nc(N[C@@H]3CCCC[C@@H]3N)c(F)cc2C(N)=O)c1 (relative stereo) [Example 6-49, 6-(cis-2-aminocyclohexylamino)-5-fluoro-2-(5-methylpyridin-3-ylamino)nicotinamide] | ≥ 85 |  |  |  | advancement of arthritis after the onset (arthritis score) (male DBA/1J mice): strongly inhibited; advancement of arthritis (arthritis score) (male DBA/1J mice; therapeutic administration test, once daily Day 27 to Day 35, 25 mg/kg/day): strongly inhibited
6 | COCCOc1cc(Nc2nc(N[C@@H](CN)CC(C)C)c(F)cc2C(N)=O)ccn1 [Example 6-157] | ≥ 85 |  |  |  | number of kinases with kinase inhibitory rate of 75% or more [1]: 12 types of kinases
7 | C[C@H](N)[C@H](Nc1nc(Nc2cncc(-n3cccn3)c2)c(C(N)=O)cc1F)C1CC1 [Example 6-373, 2-((5-(1H-pyrazol-1-yl)pyridin-3-yl)amino)-6-(((1R,2S)-2-amino-1-cyclopropylpropyl)amino)-5-fluoronicotinamide] |  |  |  |  | number of kinases with kinase inhibitory rate of 75% or more [1]: 24 types of kinases
8 | Cc1ccc(Nc2nc(N[C@@H]3CCCC[C@@H]3N)c(F)cc2C(N)=O)cn1 (relative stereo) [Example 4-17, 6-(cis-2-aminocyclohexylamino)-5-fluoro-2-(6-methylpyridin-3-ylamino)nicotinamide] | ≥ 85 |  |  |  | advancement of arthritis after the onset (arthritis score) (male DBA/1J mice): strongly inhibited
9 | NC(=O)c1cc(F)c(N[C@@H]2CCCC[C@@H]2N)nc1Nc1ccnc2[nH]ccc12 (relative stereo) [Example 004-060] |  | < 10 | < 65 | 1000 to 3000 | 
10 | CC[C@@H](Nc1nc(Nc2cncc(-c3ccccc3)c2)c(C(N)=O)cc1F)[C@H](C)N [Example 006-270, 6-(((2S,3R)-2-aminopentan-3-yl)amino)-5-fluoro-2-((5-phenylpyridin-3-yl)amino)nicotinamide] |  | < 10 | < 65 | 1000 to 3000 | 
11 | Cc1ncc(Nc2nc(NC3CCCCC3N)c(F)cc2C(N)=O)cc1-n1nccn1 (stereo not shown) [Example 002-134] |  | < 10 | 65 to 130 | 1000 to 3000 | 
12 | Cc1ccc(Nc2nc(N[C@@H]3CCCC[C@@H]3N)c(F)cc2C(N)=O)cn1 [Example 004-017] |  | 10 to 50 |  | 3000 to 6000 | IC50 (THP-1 cells [3]; THP-1 cells): 65 to 130 nM
13 | COc1ncc(Nc2nc(N[C@@H]3CCCC[C@@H]3N)c(F)cc2C(N)=O)cc1-n1nccn1 [Example 006-377, 6-(((1R,2S)-2-aminocyclohexyl)amino)-5-fluoro-2-((6-methoxy-5-(2H-1,2,3-triazol-2-yl)pyridin-3-yl)amino)nicotinamide] |  | < 10 | < 65 | 1000 to 3000 | 
14 | NC(=O)c1cc(F)c(N[C@@H]2CCCC[C@@H]2N)nc1Nc1ccc(N2CCOCC2)nc1 [Example 006-165, 6-(((1R,2S)-2-aminocyclohexyl)amino)-5-fluoro-2-((6-morpholinopyridin-3-yl)amino)nicotinamide] |  | 10 to 50 | 65 to 130 | 1000 to 3000 | 
15 | COCCOc1cc(Nc2nc(N[C@@H](CN)CC(C)C)c(F)cc2C(N)=O)ccn1 [Example 006-157, (R)-6-((1-amino-4-methylpentan-2-yl)amino)-5-fluoro-2-((2-(2-methoxyethoxy)pyridin-4-yl)amino)nicotinamide] |  | < 10 | 65 to 130 | < 1000 | 
16 | CC[C@@H](Nc1nc(Nc2cncc(-c3ccccc3F)c2)c(C(N)=O)cc1F)[C@H](C)N [Example 006-257, 6-(((2S,3R)-2-aminopentan-3-yl)amino)-5-fluoro-2-((5-(2-fluorophenyl)pyridin-3-yl)amino)nicotinamide] |  | < 10 | < 65 | 1000 to 3000 | 
17 | Cn1ccc2c(Nc3nc(N[C@@H]4CCCC[C@@H]4N)c(F)cc3C(N)=O)ccnc21 [Example 004-013] |  | < 10 | < 65 | 1000 to 3000 | 
18 | CC[C@@H](Nc1nc(Nc2cncc(-c3cccc(OC)c3F)c2)c(C(N)=O)cc1F)[C@H](C)N [Example 006-278, 6-(((2S,3R)-2-aminopentan-3-yl)amino)-5-fluoro-2-((5-(2-fluoro-3-methoxyphenyl)pyridin-3-yl)amino)nicotinamide] |  | < 10 | < 65 | 1000 to 3000 | 
19 | CCn1ncc2cc(Nc3nc(N[C@H](CC(C)C)[C@H](C)N)c(F)cc3C(N)=O)ccc21 [Example 006-384, 6-(((2S,3R)-2-amino-5-methylhexan-3-yl)amino)-2-((1-ethyl-1H-indazol-5-yl)amino)-5-fluoronicotinamide] |  | < 10 | < 65 | < 1000 | 
20 | NC(=O)c1cc(F)c(N[C@@H]2CCCC[C@@H]2N)nc1Nc1cnc(N2CCOCC2)c(F)c1 [Example 6-395, 6-(((1R,2S)-2-aminocyclohexyl)amino)-5-fluoro-2-((5-fluoro-6-morpholinopyridin-3-yl)amino)nicotinamide] | ≥ 85 |  |  |  | 
